Laboratory results reported in patent US7745575B1 (Cellpep Pharma Inc., priority 2004, dated 2010).
Bridge positions count the residues as written; N and C are the ends. Peptide text beside a SMILES is read from it.

Experiments:
hKv1.2 = hKv1.2 (Homo sapiens, UniProt P16389); assay: patch-clamp whole-cell recording, K+ current block; assay type: cell-based
Description: (§1) Electrophysiological experiments were carried out at 22-24° C. using the patch-clamp whole-cell recording mode. Cells were bathed with mammalian Ringer's solution (in mM): 160 NaCl, 4.5 KCl, 2 CaCl2, 1 MgCl2, and 10 HEPES (pH 7.4 with NaOH), with an osmolarity of 290-320 mOsm. […] A syringe-driven perfusion device was used to exchange the external recording bath solution. Two internal pipette solutions were used, one for measuring voltage-gated K^+ currents that contained (in mM): 155 KF, 2 MgCl2, 10 HEPES, and 10 EGTA (pH 7.2 with KOH), with an osmolarity of 290-320 mOsm and another for measuring Ca^2+-activated K^+ currents that contained (in mM): 135 K-aspartate, 8.7 CaCl2, 2 MgCl2, 10 EGTA, 10 HEPES (pH 7.2 with KOH), with an osmolarity of 290-320 mOsm. A free [Ca^2+]i of 1 μM was calculated. All currents through voltage-gated K^+ channels were elicited by 200 ms depolarising voltage steps from −80 to +40 mV. Potassium currents through KCa1.1, KCa2.1 and KCa3.1 were elicited by 1 μM internal [Ca^2+]i and 400 ms voltage ramps from −120 to 0 mV (for KCa3.1 channel and KCa1.1 channel) and from −120 to +40 mV (for KCa2.1 channel). Electrodes were pulled from glass capillaries (Science Products, Germany), and fire-polished to resistances of 2.5-5 MΩ. Membrane currents were measured with an EPC-9 or EPC-10 patch-clamp amplifier (HEKA Elektronik, Lambrecht, Germany) interfaced to a Macintosh computer running acquisition and analysis software (Pulse and PulseFit). When voltage-gated K^+ currents were measured, the capacitive and leak currents were subtracted using a P/10 procedure. Series resistance compensation (>80%) was used for currents above 2 nA. The holding potential was −80 mV in all experiments.

mKv1.1 = mKv1.1 (Mus musculus, UniProt P16388); assay: patch-clamp whole-cell recording, K+ current block; assay type: cell-based
Description: as §1

mKv1.3 = mKv1.3 (Mus musculus, UniProt P16390); assay: patch-clamp whole-cell recording, K+ current block; assay type: cell-based
Description: as §1

hIK1 (KCa3.1) = hIK1 (KCa3.1) (Homo sapiens, UniProt O15554); assay: patch-clamp whole-cell recording, Ca2+-activated K+ current block; assay type: cell-based
Description: as §1

[1] = toxicity in vivo, LD50 after intracerebroventricular injection; details: mouse, icv or intrathecal, 20 g C57/BL6 mice
Description: Groups of six to eight mice per dose were injected with 5 μl peptide solution containing 0.1% (w/v) bovine serum albumin and 0.9% (w/v) NaCl. The LD50 values are set out in Table 5.

hKv1.2, sequence (P16389 whole entry, the tested form may be a part): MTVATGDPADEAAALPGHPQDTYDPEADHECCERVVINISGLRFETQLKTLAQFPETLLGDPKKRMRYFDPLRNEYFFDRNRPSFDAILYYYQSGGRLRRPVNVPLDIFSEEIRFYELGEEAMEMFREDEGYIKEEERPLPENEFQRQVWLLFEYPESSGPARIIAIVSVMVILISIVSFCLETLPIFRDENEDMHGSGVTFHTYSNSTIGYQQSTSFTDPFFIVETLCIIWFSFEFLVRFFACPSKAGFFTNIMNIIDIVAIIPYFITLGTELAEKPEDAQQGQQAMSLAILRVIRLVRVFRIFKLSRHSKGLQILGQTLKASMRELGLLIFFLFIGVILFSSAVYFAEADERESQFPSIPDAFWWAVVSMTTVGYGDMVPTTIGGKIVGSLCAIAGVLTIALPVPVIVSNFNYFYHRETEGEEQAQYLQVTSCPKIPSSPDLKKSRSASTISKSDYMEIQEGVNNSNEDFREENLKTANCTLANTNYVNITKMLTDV
mKv1.1, sequence (P16388 whole entry): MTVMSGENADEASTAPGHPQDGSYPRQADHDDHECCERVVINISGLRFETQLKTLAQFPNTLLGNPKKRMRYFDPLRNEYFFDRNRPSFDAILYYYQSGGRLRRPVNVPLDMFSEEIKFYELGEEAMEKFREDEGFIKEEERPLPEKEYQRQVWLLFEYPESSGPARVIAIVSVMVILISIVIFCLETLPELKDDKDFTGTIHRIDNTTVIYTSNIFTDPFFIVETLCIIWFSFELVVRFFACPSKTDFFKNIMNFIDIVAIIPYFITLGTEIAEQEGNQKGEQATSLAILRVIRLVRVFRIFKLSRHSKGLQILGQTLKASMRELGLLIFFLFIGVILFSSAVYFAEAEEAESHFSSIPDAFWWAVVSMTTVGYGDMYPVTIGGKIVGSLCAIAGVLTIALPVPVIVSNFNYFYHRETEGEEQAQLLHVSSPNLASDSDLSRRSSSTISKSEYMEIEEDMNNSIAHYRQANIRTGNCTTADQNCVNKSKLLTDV
mKv1.3, sequence (P16390 whole entry): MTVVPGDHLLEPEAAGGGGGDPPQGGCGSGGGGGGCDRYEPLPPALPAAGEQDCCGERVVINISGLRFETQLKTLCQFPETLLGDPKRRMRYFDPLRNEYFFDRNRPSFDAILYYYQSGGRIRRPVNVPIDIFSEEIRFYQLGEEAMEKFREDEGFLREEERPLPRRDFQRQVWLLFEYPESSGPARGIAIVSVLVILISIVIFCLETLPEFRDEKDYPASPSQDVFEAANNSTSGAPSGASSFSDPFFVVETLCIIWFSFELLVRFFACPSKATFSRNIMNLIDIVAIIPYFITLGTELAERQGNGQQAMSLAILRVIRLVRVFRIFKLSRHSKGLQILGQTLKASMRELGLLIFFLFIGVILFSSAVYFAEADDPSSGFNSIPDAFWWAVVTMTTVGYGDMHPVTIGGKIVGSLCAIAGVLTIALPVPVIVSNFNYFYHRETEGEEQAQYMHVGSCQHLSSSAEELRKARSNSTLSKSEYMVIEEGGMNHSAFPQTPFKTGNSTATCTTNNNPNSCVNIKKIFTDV
hIK1 (KCa3.1), sequence (O15554 whole entry): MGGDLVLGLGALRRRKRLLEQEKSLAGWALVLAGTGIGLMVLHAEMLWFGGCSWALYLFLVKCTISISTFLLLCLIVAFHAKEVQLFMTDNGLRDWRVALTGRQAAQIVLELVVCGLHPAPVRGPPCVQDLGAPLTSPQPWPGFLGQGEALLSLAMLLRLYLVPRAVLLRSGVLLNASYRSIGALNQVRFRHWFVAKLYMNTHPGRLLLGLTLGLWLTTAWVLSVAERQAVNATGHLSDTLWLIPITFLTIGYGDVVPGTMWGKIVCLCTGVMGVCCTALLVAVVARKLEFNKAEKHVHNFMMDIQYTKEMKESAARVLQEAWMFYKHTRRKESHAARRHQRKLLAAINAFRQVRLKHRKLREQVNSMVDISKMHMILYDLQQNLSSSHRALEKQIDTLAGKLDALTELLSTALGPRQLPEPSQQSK

Q: Which results are given for `CC[C@H](C)[C@@H]1NC(=O)[C@H](CCCCN)NC(=O)[C@@H](NC(=O)[C@H](CCCCN)NC(=O)[C@@H](NC(=O)[C@H](CC(N)=O)NC(=O)[C@@H](NC(=O)[C@@H](NC(=O)[C@@H](NC(=O)CN)C(C)C)[C@@H](C)CC)[C@@H](C)CC)C(C)C)CSSC[C@@H]2NC(=O)[C@H](CCCCN)NC(=O)CNC(=O)[C@H](Cc3ccccc3)NC(=O)[C@H](CCCNC(=N)N)NC(=O)[C@H](CCSC)NC(=O)CNC(=O)[C@H](C)NC(=O)[C@H](CC(=O)O)NC(=O)[C@H](CCCCN)NC(=O)[C@@H]3CSSC[C@@H](C(=O)N[C@@H](Cc4ccc(O)cc4)C(=O)N4CCC[C@H]4C(=O)N[C@@H](CCCCN)C(=O)O)NC(=O)[C@H](Cc4c[nH]cn4)NC(=O)[C@H](CSSC[C@H](NC(=O)[C@H](CCC(N)=O)NC(=O)[C@H](CCCNC(=N)N)NC(=O)[C@H](CO)NC1=O)C(=O)N[C@@H](CC(C)C)C(=O)N[C@@H](CCCCN)C(=O)N1CCC[C@H]1C(=O)N3)NC(=O)[C@H](CCCCN)NC(=O)CNC(=O)[C@H](CC(N)=O)NC(=O)[C@H](CCSC)NC2=O` (H-GVIINVKCKISRQCLKPCKDAGMRFGKCMNGKCHCYPK-OH; disulfide 8-28, 14-33, 18-35)?
A: IC50 (hKv1.2): 231.8 ± 0.1 nM; IC50 (mKv1.1): 34.4 ± 0.3 nM; IC50 (mKv1.3): 0.122 ± 0.007 nM; IC50 (hIK1 (KCa3.1)): 885 ± 18 nM; LD50 [1]: 9 µg/kg
